Counter-ions that a name gives are not always drawn. A value given as a limit tells only on which side of the number the result lay.

The first assay deals with human σ1 receptor (Homo sapiens, UniProt Q99720). Kind of assay: biochemical. Details: μ and σ1 dual binding: key to the marks not given beside the values. The assay is classed as binding.
human σ1 receptor, sequence (Q99720 whole entry): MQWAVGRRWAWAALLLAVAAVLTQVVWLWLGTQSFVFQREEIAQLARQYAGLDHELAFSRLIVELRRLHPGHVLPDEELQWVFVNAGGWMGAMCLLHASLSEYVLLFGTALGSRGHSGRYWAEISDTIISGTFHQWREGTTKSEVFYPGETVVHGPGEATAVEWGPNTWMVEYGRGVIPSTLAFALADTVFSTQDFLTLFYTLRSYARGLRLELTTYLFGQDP
Conditions: not given
On to `CC1OC2(CCN(CCn3ccc4cccnc43)CC2)CN(c2ccccc2)C1=O.Cl` (stereo not drawn) [Example 69, 9-(2-(1H-pyrrolo[2,3-b]pyridin-1-yl)ethyl)-2-methyl-4-phenyl-1-oxa-4,9-diazaspiro[5.5]undecan-3-one hydrochloride], for which the “μ and σ1 dual binding” value is recorded as “++”.
The same measure, in the same setting: then `COC(=O)c1ccc(CCN2CCC3(CC2)CN(c2ccccc2)C(=O)C(C)O3)cc1.Cl` (stereo not drawn) [Example 70, methyl 4-(2-(2-methyl-3-oxo-4-phenyl-1-oxa-4,9-diazaspiro[5.5]undecan-9-yl)ethyl)benzoate hydrochloride], with “++”; and `CC1OC2(CCN(CCOc3ccccc3)CC2)CN(c2ccccc2)C1=O.Cl` (stereo not drawn) [Example 72, 2-methyl-9-(2-phenoxyethyl)-4-phenyl-1-oxa-4,9-diazaspiro[5.5]undecan-3-one hydrochloride], with “++”; and `CC1OC2(CCN(CCc3ccc(C#N)cc3)CC2)CN(c2ccccc2)C1=O.Cl` (stereo not drawn) [Example 76, 4-(2-(2-methyl-3-oxo-4-phenyl-1-oxa-4,9-diazaspiro[5.5]undecan-9-yl)ethyl)benzonitrile hydrochloride], with “++”.
Same read-out and setting: then `Cc1cc(C)n(CCN2CCC3(CC2)CN(c2ccccc2)C(=O)C(C)O3)n1.Cl` (stereo not drawn) [Example 77, 9-(2-(3,5-dimethyl-1H-pyrazol-1-yl)ethyl)-2-methyl-4-phenyl-1-oxa-4,9-diazaspiro[5.5]undecan-3-one hydrochloride], with “++”.
In the case of `O=C1C(=CC2CCOCC2)OC2(CCN(CCc3ccccc3)CC2)CN1c1ccccc1F` [Example 80, 4-(2-fluorophenyl)-9-phenethyl-2-((tetrahydro-2H-pyran-4-yl)methylene)-1-oxa-4,9-diazaspiro[5.5]undecan-3-one], the Ki is less than 500 nM.
`CC(C)CCN1CCC2(CC1)CN(c1ccccc1F)C(=O)C(C)O2.Cl` (stereo not drawn) [Example 81, 4-(2-fluorophenyl)-9-isopentyl-2-methyl-1-oxa-4,9-diazaspiro[5.5]undecan-3-one hydrochloride]: the “μ and σ1 dual binding” value is given as “++”.
Regarding `COc1cccc(CCN2CCC3(CC2)CN(c2ccccc2F)C(=O)C(C)O3)c1` (stereo not drawn) [Example 83, 4-(2-fluorophenyl)-9-(3-methoxyphenethyl)-2-methyl-1-oxa-4,9-diazaspiro[5.5]undecan-3-one hydrochloride], the Ki is less than 100 nM.
As for `CC1OC2(CCN(CCc3ccccc3)CC2)CN(c2cscn2)C1=O` (stereo not drawn) [Example 88, 2-methyl-9-phenethyl-4-(thiazol-4-yl)-1-oxa-4,9-diazaspiro[5.5]undecan-3-one hydrochloride], the Ki is less than 500 nM.
The same measure, in the same setting: then `CC1OC2(CCN(CCc3cccc(F)n3)CC2)CN(c2ccccc2F)C1=O` (stereo not drawn) [Example 89, 4-(2-fluorophenyl)-9-(2-(6-fluoropyridin-2-yl)ethyl)-2-methyl-1-oxa-4,9-diazaspiro[5.5]undecan-3-one hydrochloride], with less than 500 nM.
Still for that read-out and setting: the result for `CNS(=O)(=O)c1cccc(CCN2CCC3(CC2)CN(c2ccccc2)C(=O)C(C)O3)c1` (stereo not drawn) [Example 93, N-methyl-3-(2-(2-methyl-3-oxo-4-phenyl-1-oxa-4,9-diazaspiro[5.5]undecan-9-yl)ethyl)benzenesulfonamide] reads less than 500 nM; that for `CC1OC2(CCN(CCc3ccc(F)cn3)CC2)CN(c2ccccc2)C1=O` (stereo not drawn) [Example 94, 9-(2-(5-fluoropyridin-2-yl)ethyl)-2-methyl-4-phenyl-1-oxa-4,9-diazaspiro[5.5]undecan-3-one hydrochloride], less than 500 nM.
`CC1OC2(CCN(CCc3nccs3)CC2)CN(c2ccccc2)C1=O` (stereo not drawn) [Example 95, 2-methyl-4-phenyl-9-(2-(thiazol-2-yl)ethyl)-1-oxa-4,9-diazaspiro[5.5]undecan-3-one hydrochloride] showed a Ki of less than 500 nM.
Turning to `CC1OC2(CCN(CCc3ncccc3F)CC2)CN(c2ccccc2)C1=O` (stereo not drawn) [Example 96, 9-(2-(3-fluoropyridin-2-yl)ethyl)-2-methyl-4-phenyl-1-oxa-4,9-diazaspiro[5.5]undecan-3-one hydrochloride], the Ki was less than 500 nM.

The same assay, now with this note: combined class from Ki-σ1 (human σ1 receptor, A1) and Ki-μ (human μ-opioid receptor, A2) radioligand binding.
For the compound `O=C1COC2(CCN(CCc3ccccn3)CC2)CN1Cc1ccccn1` [Example 84, 9-(2-(pyridin-2-yl)ethyl)-4-(pyridin-2-ylmethyl)-1-oxa-4,9-diazaspiro[5.5]undecan-3-one], the “μ and σ1 dual binding” value is listed as “++”.

The same assay, now with this note: read-out: μ and σ1 dual binding.
As for `COC(=O)CCN1CCC2(CC1)CN(c1ccccc1)C(=O)C(C)O2` (stereo not drawn) [Example 64, methyl 3-(2-methyl-3-oxo-4-phenyl-1-oxa-4,9-diazaspiro[5.5]undecan-9-yl)propanoate], the Ki was more than 500 nM.
With `CC1OC2(CCN(CCN3CCOCC3)CC2)CN(c2ccccc2)C1=O` (stereo not drawn) [Example 65, 2-methyl-9-(2-morpholinoethyl)-4-phenyl-1-oxa-4,9-diazaspiro[5.5]undecan-3-one], the Ki was more than 500 nM.
As for `CC1OC2(CCN(CCc3ccc([N+](=O)[O-])cc3)CC2)CN(c2ccccc2)C1=O` (stereo not drawn) [Example 66, 2-methyl-9-(4-nitrophenethyl)-4-phenyl-1-oxa-4,9-diazaspiro[5.5]undecan-3-one], the Ki was more than 500 nM.
Take `CC1OC2(CCN(CCc3cccc([N+](=O)[O-])c3)CC2)CN(c2ccccc2)C1=O` (stereo not drawn) [Example 67, 2-methyl-9-(3-nitrophenethyl)-4-phenyl-1-oxa-4,9-diazaspiro[5.5]undecan-3-one]: the Ki was more than 500 nM.
The same measure, in the same setting: then `CC1OC2(CCN(CCc3ccccc3[N+](=O)[O-])CC2)CN(c2ccccc2)C1=O` (stereo not drawn) [Example 68, 2-methyl-9-(2-nitrophenethyl)-4-phenyl-1-oxa-4,9-diazapspiro[5.5]undecan-3-one], with more than 500 nM; and `CC1OC2(CCN(CC(=O)Nc3ccccc3)CC2)CN(c2ccccc2)C1=O` (stereo not drawn) [Example 71, 2-(2-methyl-3-oxo-4-phenyl-1-oxa-4,9-diazaspiro[5.5]undecan-9-yl)-N-phenylacetamide], with more than 500 nM.
On the same count and under the same terms, the result for `CC1OC2(CCN(CCc3cccnc3)CC2)CN(c2ccccc2)C1=O` (stereo not drawn) [Example 73, 2-methyl-4-phenyl-9-(2-(pyridin-3-yl)ethyl)-1-oxa-4,9-diazaspiro[5.5]undecan-3-one] reads less than 500 nM; that for `CC1OC2(CCN(CCn3c(=O)oc4ccccc43)CC2)CN(c2ccccc2)C1=O` (stereo not drawn) [Example 74, 3-(2-(2-methyl-3-oxo-4-phenyl-1-oxa-4,9-diazaspiro[5.5]undecan-9-yl)ethyl)benzo[d]oxazol-2(3H)-one hydrochloride], less than 500 nM; that for `CC1OC2(CCN(CCc3cccc(C#N)c3)CC2)CN(c2ccccc2)C1=O` (stereo not drawn) [Example 75, 3-(2-(2-methyl-3-oxo-4-phenyl-1-oxa-4,9-diazaspiro[5.5]undecan-9-yl)ethyl)benzonitrile hydrochloride], less than 100 nM.
Same read-out and setting: the result for `CC1OC2(CCN(CC(=O)N3CCOCC3)CC2)CN(c2ccccc2)C1=O` (stereo not drawn) [Example 78, 2-methyl-9-(2-morpholino-2-oxoethyl)-4-phenyl-1-oxa-4,9-diazaspiro[5.5]undecan-3-one hydrochloride] reads more than 500 nM; that for `COc1ccccc1CCN1CCC2(CC1)CN(Cc1ccccn1)C(=O)CO2` [Example 79, 9-(2-methoxyphenethyl)-4-(pyridin-2-ylmethyl)-1-oxa-4,9-diazaspiro[5.5]undecan-3-one], less than 500 nM.
Turning to `CC1OC2(CCN(CC3CC3)CC2)CN(c2ccccc2F)C1=O` (stereo not drawn) [Example 82, 9-(cyclopropylmethyl)-4-(2-fluorophenyl)-2-methyl-1-oxa-4,9-diazaspiro[5.5]undecan-3-one hydrochloride], the Ki was more than 500 nM.
On the same count and under the same terms, then `CC(C)=C1OC2(CCN(CCc3ccccc3)CC2)CN(c2ccccc2F)C1=O` [Example 85, 4-(2-fluorophenyl)-9-phenethyl-2-(propan-2-ylidene)-1-oxa-4,9-diazaspiro[5.5]undecan-3-one], with more than 500 nM.
As for `O=C1COC2(CCN(CCc3ccccc3)CC2)CN1Cc1ccccn1` [Example 86, 9-phenethyl-4-(pyridin-2-ylmethyl)-1-oxa-4,9-diazaspiro[5.5]undecan-3-one hydrochloride], the Ki was less than 100 nM.
Regarding `COc1ccccc1CCN1CCC2(CC1)CN(Cc1ccccc1)CCO2` [Example 87, 4-benzyl-9-(2-methoxyphenethyl)-1-oxa-4,9-diazaspiro[5.5]undecane dihydrochloride], the Ki was more than 500 nM.
With `O=C1N(c2ccccc2)CC2(CCN(CCc3ccccn3)CC2)OC12CC2` [Example 90, 12-phenyl-8-[2-(pyridin-2-yl)ethyl]-4-oxa-8,12-diazaspiro[2.1.5.3]tridecan-13-one], the Ki was less than 100 nM.
Still for that read-out and setting: the result for `CC1OC2(CCN(CCc3ccc(C(F)(F)F)nc3)CC2)CN(c2ccccc2F)C1=O` (stereo not drawn) [Example 91, 4-(2-fluorophenyl)-2-methyl-9-(2-(6-(trifluoromethyl)pyridin-3-yl)ethyl)-1-oxa-4,9-diazaspiro[5.5]undecan-3-one dihydrochloride] reads less than 500 nM; that for `O=C1N(c2ccccc2)CC2(CCN(CCc3cccc([N+](=O)[O-])c3)CC2)OC12CC2` [Example 92, 8-(3-nitrophenethyl)-12-phenyl-4-oxa-8,12-diazaspiro[2.1.5.3]tridecan-13-one], more than 500 nM.
Still for that read-out and setting: then `O=C(CN1CCC2(CC1)CN(c1ccccc1)C(=O)C1(CC1)O2)c1ccccc1` [Example 97, 8-(2-oxo-2-phenylethyl)-12-phenyl-4-oxa-8,12-diazadispiro[2.1.5.3]tridecan-13-one], with more than 500 nM; and `O=C1COC2(CCN(CCc3ccccn3)CC2)CN1Cc1ccc(C(F)(F)F)cn1` [Example 98, 9-(2-(pyridin-2-yl)ethyl)-4-((5-(trifluoromethyl)pyridin-2-yl)methyl)-1-oxa-4,9-diazaspiro[5.5]undecan-3-one hydrochloride], with less than 500 nM; and `O=C(CN1CCC2(CC1)CN(Cc1ccc(C(F)(F)F)cn1)C(=O)CO2)c1ccccc1` [Example 99, 9-(2-oxo-2-phenylethyl)-4-((5-(trifluoromethyl)pyridin-2-yl)methyl)-1-oxa-4,9-diazaspiro[5.5]undecan-3-one], with more than 500 nM.

(Values after US10703765B2 (priority 2014, dated 2020).)
